# In article PMC2856764 (Human immunology, 2010):
# Ends that are not written are not given here.
# Experiments:
# Assay in all cases: biochemical
# Type in all cases: binding
# [1] = biological target: HLA-A*3301 (Homo sapiens, UniProt P04439, A270S/D185E/E176V/E277Q/E87N/F33T/G231S/H175R/I121M/I218V/I322F/K168Q/K210R/L300P/L318F/M331R/P217A/Q86R/Q94H/R138Q/T323A/T345S/T97I/V358M/Y195H)
# [2] = biological target: HLA-A*3101 (Homo sapiens, UniProt P04439, A270S/D185E/E176V/E277Q/F33T/G231S/G80R/H175R/I121M/I218V/I322F/K168Q/L300P/L318F/M331R/P217A/Q94H/R138Q/T323A/T345S/T97I/V358M)
# [3] = biological target: HLA-A*1101 (Homo sapiens, UniProt P04439, A114D/D185E/E176A/F33Y/L180Q/S129P/T187R)
# [4] = biological target: HLA-A*6801 (Homo sapiens, UniProt P04439, A269V/D185E/E176V/E277Q/E87N/F33Y/G231S/I121M/I166T/I218V/L180W/L300P/L318F/N151K/P208A/P217A/Q86R/R169H/T345S)
# [5] = biological target: HLA-A*0301 (Homo sapiens, UniProt P04439)
# [6] = biological target: HLA-A*3002 (Homo sapiens, UniProt P04439, D101N/D140H/D185E/E176R/F33S/G80R/H175R/K168Q/Q94H/R138E/R41S/V100E)
# [7] = biological target: HLA-A*2601 (Homo sapiens, UniProt P04439, A114D/A173T/A270S/D101N/D185E/E277Q/E87N/F33Y/G231S/I121R/I218V/K168Q/L180W/L300P/L318F/P208A/P217A/Q86R/Q94H/R138Q/S129P/T187R/T323A/T345S/V100A/V358M)
# [8] = biological target: HLA-A*2902 (Homo sapiens, UniProt P04439, A270S/D101N/D185E/E176V/E277Q/E87Q/F33T/G231S/H175R/I121M/I218V/I322F/K168Q/L300P/L318F/M331R/P208A/P217A/Q86L/T323A/T345S/V100A/V358M)
# [9] = biological target: HLA-A*0101 (Homo sapiens, UniProt P04439, A114D/A174V/A182V/D101N/D185E/E176A/E190D/L180R/Q94H/R68K/S129P/T187R/V100A/V91M/W191G)
# [10] = biological target: HLA-A*0203 (Homo sapiens, UniProt P04439, A173T/D140Y/D185E/D98H/E277Q/G131W/G231S/I119V/I121R/I166T/I218V/L180W/L300P/L318F/N151K/N90K/P208A/P217A/Q86G/Q94H/R138H/R169H/T345S)
# [11] = biological target: HLA-A*6802 (Homo sapiens, UniProt P04439, A269V/D140Y/D185E/E176V/E277Q/E87N/F33Y/G231S/I121R/I166T/I218V/L180W/L300P/L318F/N151K/P208A/P217A/Q86R/R138H/R169H/S129P/T345S/V36M)
# [12] = biological target: HLA-A*0206 (Homo sapiens, UniProt P04439, D140Y/D185E/D98H/E176V/E277Q/F33Y/G131W/G231S/I119V/I121R/I166T/I218V/L300P/L318F/N151K/N90K/P208A/P217A/Q86G/Q94H/R138H/R169H/T345S)
# [13] = biological target: HLA-A*0201 (Homo sapiens, UniProt P04439, D140Y/D185E/D98H/E176V/E277Q/G131W/G231S/I119V/I121R/I166T/I218V/L300P/L318F/N151K/N90K/P208A/P217A/Q86G/Q94H/R138H/R169H/T345S)
# [14] = biological target: HLA-A*0202 (Homo sapiens, UniProt P04439, D140Y/D185E/D98H/E176V/E277Q/G131W/G231S/I119L/I121R/I166T/I218V/L180W/L300P/L318F/N151K/N90K/P208A/P217A/Q67R/Q86G/Q94H/R138H/R169H/T345S)
# [15] = biological target: HLA-B*4402 (Homo sapiens, UniProt P01889, A223V/A65T/A93T/A95T/D201E/D98Y/E176V/E187L/E204Q/E69K/G107R/H137Y/K202T/L105A/L119I/N104T/N87E/Q56L/Q94N/R106L/R155S/R180D/S101N/S121R/S35A/S48T/T118I/V36M/W191S/Y140D/Y91S)
# [16] = biological target: HLA-B*4002 (Homo sapiens, UniProt P01889, A65T/A93T/A95T/D138N/D201E/D98Y/E176V/E204Q/E69K/K202T/N87E/Q56L/Q94N/R180L/S48T/Y33H/Y91S)
# [17] = biological target: HLA-B*4501 (Homo sapiens, UniProt P01889, A329T/A65T/A93T/A95T/C349S/D138N/D201E/D98Y/E176V/E187L/E204Q/E69K/H137Y/K202T/L119W/N87E/Q56L/Q94N/R155S/R180D/S121R/S35A/S48T/V127L/V306I/V36M/W191S/Y140L/Y33H/Y91S)
# [18] = biological target: HLA-B*4001 (Homo sapiens, UniProt P01889, A65T/A93T/A95T/D138N/D98Y/E176V/E69K/N87E/Q56L/Q94N/R180L/S121R/S35A/S48T/T167S/V36M/W171L/Y33H/Y91S)
# [19] = biological target: HLA-B*4403 (Homo sapiens, UniProt P01889, A223V/A65T/A93T/A95T/D201E/D98Y/E176V/E187L/E204Q/E69K/G107R/H137Y/K202T/L105A/L119I/N104T/N87E/Q56L/Q94N/R106L/R155S/R180L/S101N/S121R/S35A/S48T/T118I/V36M/W191S/Y140D/Y91S)
# [20] = biological target: HLA-B*1801 (Homo sapiens, UniProt P01889, A329T/A93T/A95T/C349S/D201E/D54G/D98Y/E176V/E187T/E204Q/E69T/K202T/Q94N/R155S/R180L/S121R/V306I/Y140S/Y195H/Y33H/Y91S)
sequence,measurement,setting,value
KLVGINMSKK [PB1.471],IC50,[1],> 10000 nM
same,IC50,[2],518 nM
same,IC50,[3],315 nM
same,IC50,[4],1610 nM
same,IC50,[5],14 nM
LVSDGGPNLY [PB1.590],IC50,[6],57 nM
same,IC50,[7],156 nM
same,IC50,[8],479 nM
same,IC50,[9],399 nM
NMLSTVLGV [PB1.413],IC50,[10],11 nM
same,IC50,[11],1060 nM
same,IC50,[12],3 nM
same,IC50,[13],4 nM
same,IC50,[14],5 nM
QEIRTFSFQL [NS2.184],IC50,[15],102 nM
same,IC50,[16],68 nM
same,IC50,[17],380 nM
same,IC50,[18],135 nM
same,IC50,[19],431 nM
same,IC50,[20],515 nM
RLFFKCIYRR [M2.45],IC50,[1],238 nM
same,IC50,[2],5 nM
same,IC50,[3],294 nM
same,IC50,[4],88 nM
same,IC50,[5],135 nM
SEQAAEAMEV [M1.196],IC50,[15],2640 nM
same,IC50,[16],85 nM
same,IC50,[17],35 nM
same,IC50,[18],2670 nM
same,IC50,[19],7670 nM
same,IC50,[20],1900 nM
SFSFGGFTFK [PB2.322],IC50,[1],85 nM
same,IC50,[2],19 nM
same,IC50,[3],7 nM
same,IC50,[4],60 nM
same,IC50,[5],74 nM
SVQPTFSVQR [NP.407],IC50,[1],181 nM
same,IC50,[2],21 nM
same,IC50,[3],37 nM
same,IC50,[4],84 nM
same,IC50,[5],> 10000 nM
SVQRNLPFER [NP.413],IC50,[1],321 nM
same,IC50,[2],104 nM
same,IC50,[3],411 nM
same,IC50,[4],19 nM
same,IC50,[5],> 10000 nM
TEVETYVLSI [M1.5],IC50,[15],6880 nM
same,IC50,[16],195 nM
same,IC50,[17],504 nM
same,IC50,[18],133 nM
same,IC50,[19],247 nM
same,IC50,[20],136 nM
VLRGFLILGK [PB2.690],IC50,[1],> 10000 nM
same,IC50,[2],85 nM
same,IC50,[3],460 nM
same,IC50,[4],1160 nM
same,IC50,[5],10 nM
YSHGTGTGY [PB1.30],IC50,[6],131 nM
same,IC50,[7],5 nM
same,IC50,[8],486 nM
same,IC50,[9],199 nM
